This is an account of results in patent US20020044973A1, “MICROPARTICLES AND THEIR USE IN CANCER TREATMENT” (priority 1997, published 2002).

Broadly, the IC50 is the concentration at which inhibition is half-maximal. A high value points to a need for much substance.

The structures appear in SMILES notation. Values after ≈ are worked out from the molar mass of the structure shown.

One assay concerns MCF7/Dox cell line. The assay can be described thus: Cytotoxicity in doxorubicin-resistant P-glycoprotein expressing daughter cell line (cell counting, Coulter Counter). The assay is classed as cell-based. The settings on record: Homo sapiens, 24 hours incubation, further 72 hours before counting, microspheres expressed as μg doxorubicin per ml.
Another assay relates to C170HM2. The assay can be described thus: Example 5: liver tumour weight in tumour-bearing mice, loaded HSAMs vs free doxorubicin. The assay is classed as in vivo. The settings on record: 0.24 mg/kg loaded HSAMs or 0.25 mg/kg free doxorubicin; dosing at day 27, termination at day 41; 12 mice per group. On the procedure: 0.24 mg/kg doxorubicin-loaded HSAMs (drug loading approx. 1% w/w) were administered to a group of tumour-bearing mice (C170HM2). A further group received HSAMs, at a protein concentration of 100 mg/ml, as a control. A third group received 0.25 mg/kg free doxorubicin. There were 12 mice per group. Dosing was at day 27, termination at day 41.
For the control, the mean liver tumour weight was c. 1.3 g. Following administration of free doxorubicin, the mean weight was c. 0.3 g.

Experimental for MCF7/Dox cell line: More specifically, the experiment compared the cytotoxicity of a novel preparation of doxorubicin covalently-linked to a human serum albumin microsphere carrier between 2 and 3 μm in diameter on a doxorubicin-sensitive human breast cancer cell line and its doxorubicin-resistant P-glycoprotein expressing daughter cell line. […] The human MCF7 cell line and its doxorubicin-resistant daughter cell line, MCF7/Dox were used.
The medium was then changed, cells were incubated for a further 72 hours before harvesting and counting with a Coulter Counter.

For the compound `COc1cccc2c1C(=O)c1c(O)c3c(c(O)c1C2=O)C[C@@](O)(C(=O)CO)C[C@@H]3O[C@H]1C[C@H](N)[C@H](O)[C@H](C)O1` [doxorubicin], in the assay on MCF7/Dox cell line, half-maximal inhibition (IC50) required 0.387 µg/mL (≈ 0.712 µM). In addition, in the assay on C170HM2, the “mean liver tumour weight” value is listed as ~0.3 g.
